Structures are written as SMILES.

Holding throughout (assay type): in vivo
Assay [1] deals with Japanese bulrush (Scirpus juncoides Roxb.). As to the kind of experiment: Test Example 1: herbicidal effect by soil application to paddy field. Particulars: paddy field soil application; active ingredient 1,000 g per 1 hectare; wettable powder added dropwise to water surface the day after sowing; examined on the 21st day after application. The method, boiled down:
(§1)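 Plants were sown in flooded (3 cm) paddy soil and evaluated for herbicidal effect 21 days after soil application in a greenhouse.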

The subject of assay [2] is early watergrass (Echinochloa oryzicola Vasing). Described as above. Particulars: paddy field soil application; active ingredient 1,000 g per 1 hectare; wettable powder added dropwise to water surface the day after sowing; examined on the 21st day after application. The method, boiled down: as §1
Assay [3] has as its system heartshape false pickerelweed (Monochoria vaginalis (Burm.f.) C.Presl). Described as above. The settings on record: paddy field soil application; active ingredient 1,000 g per 1 hectare; wettable powder added dropwise to water surface the day after sowing; examined on the 21st day after application. In a few lines: as §1
The test system of assay [4] is barnyardgrass (Echinochloa crus-galli (L.) P. Beauv. var. crus-galli). As to the kind of experiment: Test Example 2: herbicidal effect by soil application to upland field. Particulars: soil surface spray, upland field soil, 1,000 g active ingredient per hectare, 21st day after application. The method, boiled down:
(§2)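 Pots of field soil, seeds sown and soil-covered; wettable powder diluted in water sprayed on soil at 1,000 g a.i./ha (1,000 L/ha). Greenhouse-grown; herbicidal effect rated per standard at 21 days post-application.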

The subject of assay [5] is green foxtail (Setaria viridis (L.) P. Beauv.). Described as above. Particulars: soil surface spray, upland field soil, 1,000 g active ingredient per hectare, 21st day after application. The method, boiled down:
as §2

In assay [6] the test system is slender amaranth (Amaranthus viridis L.). The assay is described as above. Particulars: soil surface spray, upland field soil, 1,000 g active ingredient per hectare, 21st day after application. The method, boiled down:
as §2

Assay [7] has as its system velvetleaf (Abutilon theophrasti medicus). Described as above. The settings on record: soil surface spray, upland field soil, 1,000 g active ingredient per hectare, 21st day after application. In a few lines:
as §2

For assay [8], the system named is barnyardgrass (Echinochloa crus-galli (L.) P. Beauv. var. crus-galli). In words: Test Example 3: herbicidal effect by application to upland field (foliage treatment). Particulars: 14th day after application; for herbicidal effect, Barnyardgrass: foliage treatment, 1,000 g active ingredient per 1 hectare, greenhouse; for herbicidal effect (index), Barnyardgrass: foliage treatment, plants grown two weeks, 1,000 g active ingredient per hectare. The method, boiled down:
(§3)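 Plants were sown in field soil and raised in a greenhouse for two weeks before foliar spraying. A water-diluted wettable powder was applied at 1,000 g active ingredient per hectare in 1,000 liters per hectare. Herbicidal effect was scored on a standard scale 14 days later.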

Assay [9] relates to green foxtail (Setaria viridis (L.) P. Beauv.). Described as above. The settings on record: 14th day after application; for herbicidal effect, Green Foxtail: foliage treatment, 1,000 g active ingredient per 1 hectare, greenhouse; for herbicidal effect (index), Green Foxtail: foliage treatment, plants grown two weeks, 1,000 g active ingredient per hectare. In a few lines: as §3

Assay [10] has as its system slender amaranth (Amaranthus viridis L.). Described as above. The settings on record: 14th day after application; for herbicidal effect, Slender Amaranth: foliage treatment, 1,000 g active ingredient per 1 hectare, greenhouse; for herbicidal effect (index), Slender Amaranth: foliage treatment, plants grown two weeks, 1,000 g active ingredient per hectare. In a few lines:
as §3

Assay [11] has as its system velvetleaf (Abutilon theophrasti medicus). The assay is described as above. The settings on record: 14th day after application; for herbicidal effect, Velvetleaf: foliage treatment, 1,000 g active ingredient per 1 hectare, greenhouse; for herbicidal effect (index), Velvetleaf: foliage treatment, plants grown two weeks, 1,000 g active ingredient per hectare. In a few lines:
as §3

For `COCCCn1c(C(F)(F)F)ccc(C(=O)C2=C(O)C3CCC(C3)C2=O)c1=O` (stereo not drawn) [III-22], the “herbicidal effect, Scirpus juncoides Roxb.” value in assay [1] was 5 (90% or more of herbicidal effect and crop phytotoxicity). Also, the “herbicidal effect, Echinochloa oryzicola Vasing” value in [2] is 5 (90% or more of herbicidal effect and crop phytotoxicity). In assay [3], the “herbicidal effect, Monochoria vaginalis (Burm. f.) C. Presl” value (“herbicidal effect, Monochoria vaginalis” below) is 5 (90% or more of herbicidal effect and crop phytotoxicity). Besides, the “herbicidal effect (index), Barnyardgrass” value in [4] is 5 (90% or more of herbicidal effect and crop phytotoxicity). The “herbicidal effect (index), Green Foxtail” value in assay [5] was 5 (90% or more of herbicidal effect and crop phytotoxicity). Also, the “herbicidal effect (index), Slender Amaranth” value in assay [6] was 5 (90% or more of herbicidal effect and crop phytotoxicity). In addition, in assay [7], the “herbicidal effect (index), Velvetleaf” value is 5 (90% or more of herbicidal effect and crop phytotoxicity). The “herbicidal effect, Barnyardgrass” value in [8] is 5 (90% or more of herbicidal effect and crop phytotoxicity). Also, the “herbicidal effect, Green Foxtail” value in assay [9] was 5 (90% or more of herbicidal effect and crop phytotoxicity). In addition, the “herbicidal effect, Slender Amaranth” value in [10] is 5 (90% or more of herbicidal effect and crop phytotoxicity). In addition, the “herbicidal effect, Velvetleaf” value in assay [11] is 5 (90% or more of herbicidal effect and crop phytotoxicity).
As for `Cn1ncc(C(=O)c2ccc(C(F)(F)F)n(CCC=C(Cl)Cl)c2=O)c1O` [IV-30], the “herbicidal effect, Scirpus juncoides Roxb.” value in assay [1] was 5 (90% or more of herbicidal effect and crop phytotoxicity). In assay [2], the “herbicidal effect, Echinochloa oryzicola Vasing” value is 5 (90% or more of herbicidal effect and crop phytotoxicity). The “herbicidal effect, Monochoria vaginalis” value in assay [3] is 5 (90% or more of herbicidal effect and crop phytotoxicity). Also, in [4], the “herbicidal effect (index), Barnyardgrass” value is 5 (90% or more of herbicidal effect and crop phytotoxicity). Moreover, the “herbicidal effect (index), Green Foxtail” value in [5] was 3 (50 to less than 70% of herbicidal effect and crop phytotoxicity). In addition, the “herbicidal effect (index), Slender Amaranth” value in assay [6] was 5 (90% or more of herbicidal effect and crop phytotoxicity). Also, the “herbicidal effect (index), Velvetleaf” value in [7] was 5 (90% or more of herbicidal effect and crop phytotoxicity). The “herbicidal effect, Barnyardgrass” value in assay [8] was 5 (90% or more of herbicidal effect and crop phytotoxicity). Moreover, the “herbicidal effect, Green Foxtail” value in assay [9] is 5 (90% or more of herbicidal effect and crop phytotoxicity). The “herbicidal effect, Slender Amaranth” value in assay [10] is 5 (90% or more of herbicidal effect and crop phytotoxicity). Moreover, the “herbicidal effect, Velvetleaf” value in [11] is 5 (90% or more of herbicidal effect and crop phytotoxicity).
Take `CC(C)Cn1c(C(F)(F)F)ccc(C(=O)C2=C(O)CCCC2=O)c1=O` [I-6]: in assay [1], the “herbicidal effect, Scirpus juncoides Roxb.” value is 5 (90% or more of herbicidal effect and crop phytotoxicity). For the same molecule, the “herbicidal effect, Echinochloa oryzicola Vasing” value in assay [2] is 5 (90% or more of herbicidal effect and crop phytotoxicity). In [3], the “herbicidal effect, Monochoria vaginalis” value was 5 (90% or more of herbicidal effect and crop phytotoxicity). Moreover, the “herbicidal effect (index), Barnyardgrass” value is 5 (90% or more of herbicidal effect and crop phytotoxicity) in assay [4]; 5 (90% or more of herbicidal effect and crop phytotoxicity) in assay [8]. Further, the “herbicidal effect (index), Green Foxtail” value is 5 (90% or more of herbicidal effect and crop phytotoxicity) in [5]; 5 (90% or more of herbicidal effect and crop phytotoxicity) in assay [9]. Moreover, the “herbicidal effect (index), Slender Amaranth” value in assay [6] is 5 (90% or more of herbicidal effect and crop phytotoxicity); in [10], 5 (90% or more of herbicidal effect and crop phytotoxicity). Further, the “herbicidal effect (index), Velvetleaf” value in [7] was 5 (90% or more of herbicidal effect and crop phytotoxicity); in assay [11], 5 (90% or more of herbicidal effect and crop phytotoxicity).
For the molecule `Cc1ccc(-n2c(C(F)(F)F)ccc(C(=O)C3=C(O)CCCC3=O)c2=O)cc1` [I-89], in assay [1], the “herbicidal effect, Scirpus juncoides Roxb.” value was 5 (90% or more of herbicidal effect and crop phytotoxicity). Further, the “herbicidal effect, Echinochloa oryzicola Vasing” value in assay [2] was 5 (90% or more of herbicidal effect and crop phytotoxicity). The “herbicidal effect, Monochoria vaginalis” value in assay [3] was 5 (90% or more of herbicidal effect and crop phytotoxicity). The “herbicidal effect (index), Barnyardgrass” value in assay [4] is 5 (90% or more of herbicidal effect and crop phytotoxicity); in [8] it was 5 (90% or more of herbicidal effect and crop phytotoxicity). Moreover, the “herbicidal effect (index), Green Foxtail” value in assay [5] was 5 (90% or more of herbicidal effect and crop phytotoxicity); in assay [9], 5 (90% or more of herbicidal effect and crop phytotoxicity). Also, the “herbicidal effect (index), Slender Amaranth” value is 5 (90% or more of herbicidal effect and crop phytotoxicity) in assay [6]; 5 (90% or more of herbicidal effect and crop phytotoxicity) in assay [10]. The “herbicidal effect (index), Velvetleaf” value in assay [7] was 5 (90% or more of herbicidal effect and crop phytotoxicity); in assay [11], 5 (90% or more of herbicidal effect and crop phytotoxicity).
Take `COC(Cn1c(C(F)(F)F)ccc(C(=O)C2=C(O)C3CCC(C3)C2=O)c1=O)OC` (stereo not drawn) [III-25]: the “herbicidal effect, Scirpus juncoides Roxb.” value in assay [1] is 5 (90% or more of herbicidal effect and crop phytotoxicity). The “herbicidal effect, Echinochloa oryzicola Vasing” value in assay [2] is 5 (90% or more of herbicidal effect and crop phytotoxicity). For the same molecule, the “herbicidal effect, Monochoria vaginalis” value in assay [3] is 5 (90% or more of herbicidal effect and crop phytotoxicity). Further, the “herbicidal effect (index), Barnyardgrass” value in assay [4] is 5 (90% or more of herbicidal effect and crop phytotoxicity). Moreover, in [5], the “herbicidal effect (index), Green Foxtail” value is 5 (90% or more of herbicidal effect and crop phytotoxicity). Besides, the “herbicidal effect (index), Slender Amaranth” value in assay [6] was 5 (90% or more of herbicidal effect and crop phytotoxicity). The “herbicidal effect (index), Velvetleaf” value in assay [7] is 5 (90% or more of herbicidal effect and crop phytotoxicity). Further, the “herbicidal effect, Barnyardgrass” value in assay [8] was 5 (90% or more of herbicidal effect and crop phytotoxicity). The “herbicidal effect, Green Foxtail” value in assay [9] is 5 (90% or more of herbicidal effect and crop phytotoxicity). The “herbicidal effect, Slender Amaranth” value in [10] was 5 (90% or more of herbicidal effect and crop phytotoxicity). In addition, the “herbicidal effect, Velvetleaf” value in assay [11] is 5 (90% or more of herbicidal effect and crop phytotoxicity).
Turning to `CC(C)(C)SCn1c(C(F)(F)F)ccc(C(=O)C2=C(O)CCCC2=O)c1=O` [I-55], in [1], the “herbicidal effect, Scirpus juncoides Roxb.” value is 5 (90% or more of herbicidal effect and crop phytotoxicity). Moreover, in [2], the “herbicidal effect, Echinochloa oryzicola Vasing” value was 5 (90% or more of herbicidal effect and crop phytotoxicity). Also, the “herbicidal effect, Monochoria vaginalis” value in assay [3] was 5 (90% or more of herbicidal effect and crop phytotoxicity). Moreover, the “herbicidal effect (index), Barnyardgrass” value was 5 (90% or more of herbicidal effect and crop phytotoxicity) in [4]; 5 (90% or more of herbicidal effect and crop phytotoxicity) in [8]. Moreover, the “herbicidal effect (index), Green Foxtail” value in [5] was 5 (90% or more of herbicidal effect and crop phytotoxicity); in assay [9], 5 (90% or more of herbicidal effect and crop phytotoxicity). Further, the “herbicidal effect (index), Slender Amaranth” value is 5 (90% or more of herbicidal effect and crop phytotoxicity) in assay [6]; 5 (90% or more of herbicidal effect and crop phytotoxicity) in [10]. Moreover, the “herbicidal effect (index), Velvetleaf” value in assay [7] was 5 (90% or more of herbicidal effect and crop phytotoxicity); in assay [11], 5 (90% or more of herbicidal effect and crop phytotoxicity).

The values are drawn from US8076487B2, “Pyridone derivative and herbicide” (Kumiai Chemical Industry Co., Ltd., priority 2006, dated 2011).
